# Measurements published in USRE39591E1, “6-O-substituted ketolides having antibacterial activity” (Abbott Laboratories, priority 1996, dated 2007).
# Tested on: up to 32 different microorganisms
# Assay: in vitro antibacterial activity (MIC), agar dilution on Brain Heart Infusion (BHI) agar with Steers replicator
# Format: cell-based
# Conditions: unit assumed
# Procedure, shortened: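 Twelve plates carried successive aqueous dilutions of test compound in BHI agar; inocula were 1:100 dilutions (1:10 for slow growers such as Micrococcus, Streptococcus), incubated 35°-37° C for 20 to 24 hours. MIC was the lowest concentration giving no growth, slight haze, or sparse isolated colonies versus growth control.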
# [1] = Candida albicans CCH 442 (code TT)
# [2] = Enterococcus faecism ATCC 8043 (code II)
# [3] = Escherichia coli DC-2 (code SS)
# [4] = Escherichia coli JUHL (code QQ)
# [5] = Micrococcus luteus ATCC 4698 (code PP)
# [6] = Micrococcus luteus ATCC 9341 (code OO)
# [7] = Mycobacterium smegmatis ATCC 114 (code UU)
# [8] = Nocardia Asteroides ATCC9970 (code VV)
# [9] = Staphylococcus aureus 1775 (code GG)
# [10] = Staphylococcus aureus A-5278 (code CC)
# [11] = Staphylococcus aureus ATCC 6538P (code AA)
# [12] = Staphylococcus aureus CMX 553 (code FF)
# [13] = Staphylococcus aureus CMX 642A (code DD)
# [14] = Staphylococcus aureus NCTC10649M (code EE)
# [15] = Staphylococcus epidermidis 3519 (code HH)
# [16] = Streptococcus agalactiae CMX 508 (code KK)
# [17] = Streptococcus bovis A-5169 (code JJ)
# [18] = Streptococcus pyogenes 930 (code MM)
# [19] = Streptococcus pyogenes EES61 (code LL)
# [20] = Streptococcus pyogenes PIU 2548 (code NN)
smiles,measurement,setting,value
CC[C@H]1OC(=O)[C@H](C)C(=O)[C@H](C)[C@@H](O[C@@H]2O[C@H](C)C[C@H](N(C)C)[C@H]2O)[C@@](C)(OCC#Cc2ccc(C(=O)Nc3ccccn3)o2)C[C@@H](C)C(=O)[C@H](C)[C@H]2NC(=O)O[C@@]21C [Example 256],MIC,organism code AA,0.05 µg/mL
same,MIC,organism code BB,0.05 µg/mL
same,MIC,organism code CC,> 100 µg/mL
same,MIC,organism code DD,0.05 µg/mL
same,MIC,organism code EE,0.05 µg/mL
same,MIC,organism code FF,0.02 µg/mL
same,MIC,organism code GG,> 100 µg/mL
same,MIC,organism code HH,0.1 µg/mL
same,MIC,organism code II,0.02 µg/mL
same,MIC,organism code JJ,0.01 µg/mL
same,MIC,organism code KK,0.02 µg/mL
same,MIC,organism code LL,0.01 µg/mL
same,MIC,organism code MM,25 µg/mL
same,MIC,organism code NN,0.2 µg/mL
same,MIC,organism code OO,0.01 µg/mL
same,MIC,organism code PP,0.1 µg/mL
same,MIC,organism code QQ,100 µg/mL
same,MIC,organism code RR,0.2 µg/mL
same,MIC,organism code SS,> 100 µg/mL
same,MIC,organism code TT,> 100 µg/mL
same,MIC,organism code UU,1.56 µg/mL
same,MIC,organism code VV,0.05 µg/mL
same,MIC,organism code WW,2 µg/mL
same,MIC,organism code XX,0.03 µg/mL
same,MIC,organism code YY,0.03 µg/mL
same,MIC,organism code ZZ,16 µg/mL
same,MIC,organism code ZZA,0.25 µg/mL
"CCC1OC(=O)C(C)C(=O)C(C)C(OC2OC(C)CC(N(C)C)C2O)C(C)(OCC=Cc2ccc3ccccc3n2)CC(C)C(=O)C(C)C2NC(=O)OC12C (stereo not drawn) [Example 212, R is —CH2CH═CH-(2-quinolyl)]",MIC,organism code AA,0.39 µg/mL
same,MIC,organism code BB,0.39 µg/mL
same,MIC,organism code CC,> 100 µg/mL
same,MIC,organism code DD,0.39 µg/mL
same,MIC,organism code EE,0.39 µg/mL
same,MIC,organism code FF,0.39 µg/mL
same,MIC,organism code GG,> 100 µg/mL
same,MIC,organism code HH,0.39 µg/mL
same,MIC,organism code II,0.1 µg/mL
same,MIC,organism code JJ,≤ 0.005 µg/mL
same,MIC,organism code KK,0.1 µg/mL
same,MIC,organism code LL,0.05 µg/mL
same,MIC,organism code MM,25 µg/mL
same,MIC,organism code NN,0.39 µg/mL
same,MIC,organism code OO,0.05 µg/mL
same,MIC,organism code PP,0.39 µg/mL
same,MIC,organism code QQ,> 100 µg/mL
same,MIC,organism code RR,0.39 µg/mL
same,MIC,organism code SS,> 100 µg/mL
same,MIC,organism code TT,> 100 µg/mL
same,MIC,organism code UU,0.78 µg/mL
same,MIC,organism code VV,0.2 µg/mL
same,MIC,organism code WW,8 µg/mL
same,MIC,organism code XX,0.125 µg/mL
same,MIC,organism code YY,0.25 µg/mL
same,MIC,organism code ZZ,128 µg/mL
same,MIC,organism code ZZA,1 µg/mL
"CC[C@H]1OC(=O)[C@H](C)C(=O)[C@H](C)[C@@H](O[C@@H]2O[C@H](C)C[C@H](N(C)C)[C@H]2O)[C@@](C)(OCC#N)C[C@@H](C)C(=O)[C@H](C)[C@@H](O)[C@]1(C)O [Example 7, Compound of Formula (VIII): X is O, R is —CH2CN]",MIC,[1],> 100 µg/mL
same,MIC,[2],1.56 µg/mL
same,MIC,[3],> 100 µg/mL
same,MIC,[4],> 100 µg/mL
same,MIC,Escherichia coli SS (code RR),3.1 µg/mL
same,MIC,[5],1.56 µg/mL
same,MIC,[6],0.39 µg/mL
same,MIC,[7],> 100 µg/mL
same,MIC,[8],0.78 µg/mL
same,MIC,[9],> 100 µg/mL
same,MIC,Staphylococcus aureus A5177 (code BB),3.1 µg/mL
same,MIC,[10],> 100 µg/mL
same,MIC,[11],3.1 µg/mL
same,MIC,[12],3.1 µg/mL
same,MIC,[13],3.1 µg/mL
same,MIC,[14],3.1 µg/mL
same,MIC,[15],3.1 µg/mL
same,MIC,[16],0.78 µg/mL
same,MIC,[17],0.78 µg/mL
same,MIC,[18],> 100 µg/mL
same,MIC,[19],1.56 µg/mL
same,MIC,[20],3.1 µg/mL
"CCC1OC(=O)C(C)C(=O)C(C)C(OC2OC(C)CC(N(C)C)C2O)C(C)(OCC=Cc2cccc3ncccc23)CC(C)C(=O)C(C)C2NC(=O)OC12C (stereo not drawn) [Example 196, R is —CH2CH═CH-(5-quinolyl)]",MIC,[1],> 100 µg/mL
same,MIC,[2],0.05 µg/mL
same,MIC,[3],> 100 µg/mL
same,MIC,[4],> 100 µg/mL
same,MIC,Escherichia coli SS (code RR),0.39 µg/mL
same,MIC,[5],0.1 µg/mL
same,MIC,[6],0.01 µg/mL
same,MIC,[7],0.2 µg/mL
same,MIC,[8],0.1 µg/mL
same,MIC,[9],> 100 µg/mL
same,MIC,[10],> 100 µg/mL
same,MIC,[11],0.1 µg/mL
same,MIC,[12],0.1 µg/mL
same,MIC,[13],0.1 µg/mL
same,MIC,[14],0.1 µg/mL
same,MIC,[15],0.2 µg/mL
same,MIC,[16],≤ 0.005 µg/mL
same,MIC,[17],≤ 0.005 µg/mL
same,MIC,[18],> 100 µg/mL
same,MIC,[19],≤ 0.005 µg/mL
same,MIC,[20],0.2 µg/mL
"CCC1OC(=O)C(C)C(=O)C(C)C(OC2OC(C)CC(N(C)C)C2O)C(C)(OCC=Cc2cnc3ccc(OC)cc3c2)CC(C)C(=O)C(C)C2NC(=O)OC12C (stereo not drawn) [Example 209, R is —CH2CH═CH-(6-methoxy-3-quinolyl)]",MIC,organism code AA,0.05 µg/mL
same,MIC,organism code CC,> 100 µg/mL
same,MIC,organism code DD,0.1 µg/mL
same,MIC,organism code EE,0.1 µg/mL
same,MIC,organism code FF,0.1 µg/mL
same,MIC,organism code GG,> 100 µg/mL
same,MIC,organism code HH,0.1 µg/mL
same,MIC,organism code II,0.02 µg/mL
same,MIC,organism code JJ,0.01 µg/mL
same,MIC,organism code KK,0.01 µg/mL
same,MIC,organism code LL,0.01 µg/mL
same,MIC,organism code MM,3.1 µg/mL
same,MIC,organism code NN,0.1 µg/mL
same,MIC,organism code OO,0.01 µg/mL
same,MIC,organism code PP,0.2 µg/mL
same,MIC,organism code QQ,100 µg/mL
same,MIC,organism code RR,0.2 µg/mL
same,MIC,organism code SS,> 100 µg/mL
same,MIC,organism code TT,> 100 µg/mL
same,MIC,organism code UU,0.78 µg/mL
same,MIC,organism code VV,0.02 µg/mL
same,MIC,organism code WW,2 µg/mL
same,MIC,organism code XX,0.03 µg/mL
same,MIC,organism code YY,0.03 µg/mL
same,MIC,organism code ZZ,4 µg/mL
same,MIC,organism code ZZA,0.5 µg/mL
"C#CCOC1(C)CC(C)C(=O)C(C)C2NC(=O)OC2(C)C(CC)OC(=O)C(C)C(=O)C(C)C1OC1OC(C)CC(N(C)C)C1O (stereo not drawn) [Example 246, Compound of Formula (IX): L is CO, T is NH, R is —CH2CH≡C—H]",MIC,organism code AA,0.78 µg/mL
same,MIC,organism code BB,0.78 µg/mL
same,MIC,organism code CC,> 100 µg/mL
same,MIC,organism code DD,0.78 µg/mL
same,MIC,organism code EE,0.78 µg/mL
same,MIC,organism code FF,0.78 µg/mL
same,MIC,organism code GG,> 100 µg/mL
same,MIC,organism code HH,0.78 µg/mL
same,MIC,organism code II,0.2 µg/mL
same,MIC,organism code JJ,0.1 µg/mL
same,MIC,organism code KK,0.2 µg/mL
same,MIC,organism code LL,0.2 µg/mL
same,MIC,organism code MM,> 100 µg/mL
same,MIC,organism code NN,0.39 µg/mL
same,MIC,organism code OO,0.2 µg/mL
same,MIC,organism code PP,0.78 µg/mL
same,MIC,organism code QQ,> 100 µg/mL
same,MIC,organism code RR,0.78 µg/mL
same,MIC,organism code SS,> 100 µg/mL
same,MIC,organism code TT,> 100 µg/mL
same,MIC,organism code UU,50 µg/mL
same,MIC,organism code VV,0.78 µg/mL
same,MIC,organism code WW,16 µg/mL
same,MIC,organism code XX,0.25 µg/mL
same,MIC,organism code YY,0.125 µg/mL
same,MIC,organism code ZZ,> 128 µg/mL
same,MIC,organism code ZZA,0.5 µg/mL
